Data taken from ChEMBL document CHEMBL1153759, “Surface plasmon resonance-based detection of ladder-shaped polyethers by inhibition detection method” (Bioorg Med Chem Lett, 2009).
Calls of active or inactive are those of the source. The rule behind the calls is not given here.

Tests used:
[1] = (§1) Inhibition of bovine spleen PDE2 by surface plasmon resonance assay; parameters: species or system Bos taurus
[2] = target: 3',5'-cyclic-AMP phosphodiesterase 4D (Homo sapiens, UniProt Q08499); assay: Binding affinity to recombinant PDE4D by surface plasmon resonance assay
3',5'-cyclic-AMP phosphodiesterase 4D, sequence (Q08499 whole entry): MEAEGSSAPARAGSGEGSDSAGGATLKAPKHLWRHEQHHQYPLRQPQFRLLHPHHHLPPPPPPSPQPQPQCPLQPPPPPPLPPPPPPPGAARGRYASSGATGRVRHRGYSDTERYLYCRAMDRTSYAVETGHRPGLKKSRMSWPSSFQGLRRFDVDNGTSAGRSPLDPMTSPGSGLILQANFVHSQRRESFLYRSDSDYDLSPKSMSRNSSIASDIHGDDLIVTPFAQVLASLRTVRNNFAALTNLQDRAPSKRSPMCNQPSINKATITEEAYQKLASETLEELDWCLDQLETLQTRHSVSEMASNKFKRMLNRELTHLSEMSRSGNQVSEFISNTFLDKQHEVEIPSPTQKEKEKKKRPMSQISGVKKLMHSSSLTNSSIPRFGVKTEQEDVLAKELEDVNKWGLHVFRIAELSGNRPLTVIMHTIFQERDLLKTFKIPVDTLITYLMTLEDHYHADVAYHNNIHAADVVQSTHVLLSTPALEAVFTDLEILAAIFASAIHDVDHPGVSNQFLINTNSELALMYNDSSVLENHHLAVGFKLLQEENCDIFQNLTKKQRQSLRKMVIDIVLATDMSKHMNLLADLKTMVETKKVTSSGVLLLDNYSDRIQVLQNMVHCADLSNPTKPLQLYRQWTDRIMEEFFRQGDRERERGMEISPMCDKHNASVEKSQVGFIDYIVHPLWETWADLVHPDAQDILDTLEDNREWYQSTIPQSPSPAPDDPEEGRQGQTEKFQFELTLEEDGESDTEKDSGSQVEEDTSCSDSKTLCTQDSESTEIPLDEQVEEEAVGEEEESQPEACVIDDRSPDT

Bos taurus [3] = species on record: Bos taurus; assay: Inhibition of bovine spleen PDE2 up to 100 uM after 20 to 40 seconds by surface plasmon resonance assay
Bos taurus [4] = species on record: Bos taurus; assay: as §1
[5] = Binding affinity to bovine spleen PDE2 by surface plasmon resonance assay; parameters: species or system Bos taurus

SMILES | IC50 [1] [µM] | Kd [2] [µM] | inhibition (Bos taurus [3]) | inhibition (Bos taurus [4]) | Kd [5] [µM]
CC[C@@H](C(=O)[C@@H](C)[C@@H](O)[C@H](C)[C@@H]1O[C@@H]([C@@H](CC)C(=O)O)CC[C@@H]1C)[C@H]1O[C@]2(C=C[C@@H](O)[C@]3(CC[C@@](C)([C@H]4CC[C@](O)(CC)[C@H](C)O4)O3)O2)[C@H](C)C[C@@H]1C [SALINOMYCIN SODIUM] | > 100 | – | – | – | –
OC[C@H]1O[C@@H](CCOCc2ccccc2)[C@H](OCc2ccccc2)C[C@@H]1O | > 100 | 80 | – | – | –
C=C(C=O)C[C@@H]1C[C@H](O)[C@]2(C)O[C@@H]3C[C@@H]4O[C@@H]5C[C@]6(C)O[C@]7(C)CC[C@@H]8O[C@@H]9C[C@]%10(C)O[C@@H]%11C(C)=CC(=O)O[C@H]%11C[C@H]%10O[C@H]9C[C@@H](C)[C@H]8O[C@H]7C[C@H]6O[C@H]5C/C=C\[C@H]4O[C@H]3C[C@H]2O1 [BREVETOXIN] | 1.8 | 3.8 | Active | – | –
C=CCC(=C)/C=C/[C@@](C)(O)[C@H]1O[C@@H]2C[C@@H]3O[C@@H]4C[C@@H]5O[C@@H]6C[C@@H]7O[C@@H]8C[C@@H]9O[C@@H]%10C[C@@H]%11O[C@](C)(CCO)[C@@H](O)C[C@H]%11O[C@H]%10C[C@H]9O[C@H]8CC[C@@]7(C)O[C@@]6(C)CC[C@H](C)[C@H]5O[C@H]4C[C@@]3(C)O[C@H]2CC1=C [DESULFATED YESSOTOXIN] | 1.7 | 2 | Active | Dose-dependent effect | –
C=CCC(=C)/C=C/[C@@](C)(O)[C@H]1O[C@@H]2C[C@@H]3O[C@@H]4C[C@@H]5O[C@@H]6C[C@@H]7O[C@@H]8C[C@@H]9O[C@@H]%10C[C@@H]%11O[C@](C)(CCOS(=O)(=O)O)[C@@H](OS(=O)(=O)O)C[C@H]%11O[C@H]%10C[C@H]9O[C@H]8CC[C@@]7(C)O[C@@]6(C)CC[C@H](C)[C@H]5O[C@H]4C[C@@]3(C)O[C@H]2CC1=C [YESSOTOXIN] | 3 | 1 | Active | – | 2.2
C[C@@]12CC[C@@H]3O[C@@H]4C[C@@H]5O[C@@H]6C[C@H](O)[C@@H](CO)O[C@H]6CC[C@@]5(C)O[C@H]4C[C@H]3O[C@H]1C[C@H]1O[C@@H](CCOCc3ccccc3)[C@H](OCc3ccccc3)C[C@@H]1O2 | 9.2 | 4.8 | – | – | –
C[C@@]12CC[C@@H]3O[C@H](CO)[C@@H](O)C[C@H]3O[C@H]1C[C@H]1O[C@@H](CCOCc3ccccc3)[C@H](OCc3ccccc3)C[C@@H]1O2 | 13 | 11 | – | – | –
C[C@@]12CC[C@@H]3O[C@H](CO)[C@@H](O)C[C@H]3O[C@H]1C[C@H]1O[C@@H](CCO)[C@H](O)C[C@@H]1O2 | > 100 | 29 | – | – | –
